Experiment [1] relates to H460 lung cancer cells. Description: National Cancer Institute growth testing, H460. Type of experiment: cell-based. Here is the method: (§1) Acetone-soluble lipids (ASLs) were prepared from intact M. ulcerans cells as in Example 1, except that the acetone resuspension was applied to a preparative TLC plate to allow substantial separation of the ASLs based on relative mobility in the TLC system. The ASL with a mobility of 0.23 relative to the solvent front was scraped from the plate and resuspended.

Experiment [2] deals with MCF-7 breast cancer cells. The experiment can be described thus: National Cancer Institute growth testing, MCF-7. Type of experiment: cell-based. Here is the method:
as §1

Experiment [3] deals with SF-268 central nervous system cancer cells. The experiment can be described thus: National Cancer Institute growth testing, SF-268. Type of experiment: cell-based. The protocol: as §1
Experiment [4] relates to infiltration of macrophages and polymorphonuclear neutrophils. Description: Inflammatory reaction at site of M. marinum infection in guinea pigs. Type of experiment: in vivo, Hartley guinea pigs. The note with it: 16 hours after infection. Here is the method: Mycolactone was purified as in Example 2. Hartley guinea pigs were inoculated with an infectious quantity of M. marinum. When the inoculum was not accompanied by mycolactone, a painful, purulent lesion developed in the guinea pigs, indicative of an inflammatory reaction. In contrast, when mycolactone was injected into the locus, tissue necrosis still developed, but the infiltration of macrophages and polymorphonuclear neutrophils was delayed by 24 to 48 hours, resulting in greater than a 1,000-fold reduction in the number of neutrophils invading the site of infection 16 hours after infection. Inflammation, or the lack thereof, was confirmed by histopathological examination of paraffin embedded tissues stained with eosin and hematoxylin. While not desiring to be bound by any particular theory, it is believed that the subsequent inflammation that occurred in mycolactone-treated animals was partially a consequence of the continued growth of M. marinum. When the polyketide macrolides of the present invention are used to decrease inflammation at a site of infection, the inventive method is optionally accompanied by the administration of antibiotics.

Experiment [5] can be described thus: Biological activity level of mycolactones (test not specified).

The structures appear in SMILES notation.

On to `CC(=C/C(C)=C/C=C/C(C)=C/C(O)C(O)CC(C)O)/C=C/C(=O)OC1CCCC(=O)OC(C(C)C/C(C)=C/C(C)C(O)CC(C)O)C/C=C(\C)CC1C` (stereo not drawn) [mycolactone], for which the relative growth rate is on record as −72% in experiment [1], −78% in experiment [2] and −79% in experiment [3]. For the same molecule, the “reduction in the number of neutrophils invading the site of infection” value in experiment [4] is > 1,000 fold.

For `CC(=C\C=C\C(C)=C\C[C@@H](O)C[C@H](C)O)/C=C(C)/C=C/C(=O)O[C@H]1CCCC(=O)O[C@@H]([C@@H](C)C/C(C)=C/[C@@H](C)[C@H](O)C[C@@H](C)O)C/C=C(\C)C[C@@H]1C` [mycolactone C], the “activity level relative to the other mycolactones” value in experiment [5] (mycolactone found in Australian isolates) is reported as “about 10,000 fold lower”.

For `C/C1=C/C[C@H]([C@@H](C)C/C(C)=C/[C@@H](C)[C@H](O)C[C@@H](C)O)OC(=O)CCC[C@H](OC(=O)/C=C/C(C)=C/C(C)=C/C=C/C(C)=C/[C@H](O)[C@@H](O)C[C@H](C)O)[C@@H](C)C1` [B], the “biological activity of isomers compared” value in experiment [5] (isomers differing at the 4′ position) is reported as “same biological activity”.

The values above are taken from patent publication US6680055B1, “Mycolactone and related compounds, compositions and methods of use” (priority 1999, dated 2004).
